Marks after values point to notes of the source that are not given here. Where a SMILES comes first, the peptide text is derived from it. The star is where a group is joined. Cbz = O=C(OCc1ccccc1)*
Tests used:
[1] = tested on: neonatal rat cardiomyocytes; conditions: NRCM, doxorubicin 1 uM
cytochrome c release = experiment: Cytochrome c release (cell fractionation and Western blot); assay type: cell-based, rat; conditions: NRCM, Dox or Dox+NRG1
C57BL/6 mice [2] = experiment: Hemodynamic measurements by direct left ventricular catheterization, body and heart weights; assay type: in vivo, mouse
[3] = tested on: mRNA of cTnI, cTnT, GATA4, MEF2c and Nkx2.5; experiment: mRNA levels by quantitative RT-PCR in cardiomyocytes; assay type: cell-based, rat; conditions: for mRNA level of cTnI and cTnT: cardiomyocytes, Dox or Dox+NRG1
C57BL/6 mice [4] = experiment: Two-week survival of doxorubicin-treated mice (Kaplan-Meier); assay type: in vivo, mouse; conditions: two weeks after doxorubicin 20 mg/kg i.p.; NRG1 0.75 mg/kg s.c. daily vs placebo; doxorubicin vs non-treated control
Experimental: (§1) FIGS. 1A-1C show survival graphs (A), histograms (B-C), and immunoblots (C). […] Fourteen day survival was analyzed by the Kaplan-Meier method.
Cardiac function was assessed by direct left ventricular (LV) catheterization four days and two weeks after doxorubicin treatment. Two-week survival was analyzed by the Kaplan-Meier methods.

[5] = tested on: mice with cardiac myocyte-specific overexpression of a dominant negative PI3K; experiment: Survival of doxorubicin-treated WT and dnPI3K transgenic mice (Kaplan-Meier); assay type: in vivo, mouse; conditions: doxorubicin 20 mg/kg i.p., fourteen-day
[6] = tested on: mTOR, P70S6K, S6 and eIF4G; experiment: Phosphorylation of translational molecules by Western blot; assay type: cell-based, rat; conditions: cardiomyocytes, 48 hours after the treatment
Experimental: The phosphorylation levels of mTOR, P70S6K, S6, 4EBP and EIF4G were analyzed by Western blot analysis.
We assessed the activation of several translation machineries and related signaling pathways in Dox-Placebo and Dox-NRG1 treated cardiomyocytes.

[7] = tested on: cTnI and cTnT protein levels; experiment: cTnI and cTnT protein levels in hearts of doxorubicin-treated WT and dnPI3K mice; assay type: in vivo, mouse; conditions: two weeks after doxorubicin injection
Experimental: FIGS. 5A-5C show a survival graph (A), histograms (B), and an immunoblot (C). […] Fourteen-day survival was analyzed by the Kaplan-Meier method. FIG. 5B depicts hemodynamic measurements in doxorubicin-treated dnPI3K mice. […] Hemodynamic measurements were performed six days after the doxorubicin treatment.
The present inventors measured cTnI and cTnT protein levels in doxorubicin-treated WT and dnPI3K mice.

[8] = tested on: serum creatine kinase (CK); experiment: Serum creatine kinase (CK) level; assay type: in vivo, mouse; conditions: four days after doxorubicin injection
Experimental: as §1
Serum creatine kinase (CK) levels, an index of cardiac injury, were also assessed to provide an additional read-out of heart function.

[9] = tested on: cTnI, cTnT and cTnC protein levels; experiment: Cardiac structural protein levels in heart by Western blot; assay type: in vivo, mouse
Experimental: as §1
Eight to ten week old C57BL/6 male mice were used for analyses wherein heart samples were isolated. […] Heart samples (n=3-4 per group) were collected and snap-frozen in liquid nitrogen.

[10] = tested on: caspase 3, 6 and 9 as well as caspase-10, 2, and 5; experiment: Caspase activation assay in cardiomyocytes; assay type: cell-based, rat; conditions: Dox or Dox+NRG1
Excerpt: To investigate whether NRG1 inhibited doxorubicin-induced caspase degradation of cTnI and cTnT, the present inventors first identified the specific caspases that were responsible for doxorubicin-induced degradation of cTnI and cTnT. […] In addition, down-regulation of cTnI was blocked by inhibitors for caspase-10 (extrinsic pathway), caspase-2, caspase-13 or caspase-5.

cTnI = experiment: Ubiquitinylation of cTnI (immunoprecipitation, ubiquitin antibody); assay type: cell-based, rat; conditions: NRCM, Dox or Dox+NRG1
[11] = WT mice, NRG1 0.75 mg/kg s.c. or placebo
[12] = doxorubicin-treated cardiomyocytes

Molecule: CC(C)C[C@@H](C=O)NC(=O)[C@H](CC(C)C)NC(=O)[C@H](CC(C)C)NC(=O)OCc1ccccc1 [MG132] (Cbz-Leu-Leu-Leu-aldehyde)
- effect on doxorubicin-induced down-regulation of cTnI [1]: blocked

Molecule: COc1cccc2c1C(=O)c1c(O)c3c(c(O)c1C2=O)C[C@@](O)(C(=O)CO)C[C@@H]3O[C@H]1C[C@H](N)[C@H](O)[C@H](C)O1 [doxorubicin]
- cytochrome c release to the cytosol (cytochrome c release): induced increasing
- BW (C57BL/6 mice [2]; C57BL/6 mice, doxorubicin 20 mg/kg i.p. single dose with placebo or NRG1 0.75 mg/kg s.c. daily, five days after doxorubicin): 20 ± 0.4 g
- Cardiac Output (C57BL/6 mice [2]; as E1): 1185 ± 203 µL/min
- EF (C57BL/6 mice [2]; as E1): 17 ± 2 %
- HW/BW (C57BL/6 mice [2]; as E1): 4.1 ± 0.1 mg/g
- HW/TL (C57BL/6 mice [2]; as E1): 5.1 ± 0.1 mg/mm
- LVEDP (C57BL/6 mice [2]; as E1): 3.6 ± 0.9^ mmHg
- LVW/BW (C57BL/6 mice [2]; as E1): 3.5 ± 0.1^ mg/g
- LVW/TL (C57BL/6 mice [2]; as E1): 4.4 ± 0.1 mg/mm
- dP/dt max (C57BL/6 mice [2]; as E1): 7067 ± 884 ^ mmHg/sec
- dP/dt min (C57BL/6 mice [2]; as E1): 5021 ± 602*^ mmHg/sec
- LVSP (C57BL/6 mice [2]; as E1, LV systolic pressure): 84 ± 2*^ mmHg
- HW (C57BL/6 mice [2]; as E1, heart weight): 83 ± 3 mg
- LVW (C57BL/6 mice [2]; as E1, left ventricular weight): 70 ± 1 mg
- TL (C57BL/6 mice [2]; as E1, tibia length): 16.3 ± 0.2 ^ mm
- mRNA level of cTnI and cTnT [3]: decreased
- survival (C57BL/6 mice [4]): significantly decreased
- survival rate [5, 11]: 33%
- phosphorylation levels of mTOR, P70S6K, S6 and eIF4G [6]: decreased
- cTnI protein level in dnPI3K hearts [7]: decrease
- cTnT protein levels in hearts of doxorubicin-treated mice compared to control mice [7]: No changes
- serum CK level compared to control mice [8]: significantly increased
- levels of cardiac structural proteins (α-sarcomeric actin, α-actinin, TnT, TnI, TnC, tropomyosin) in hearts ([9]; doxorubicin 20 mg/kg i.p.): significantly decreased
- activation of caspase 3, 6 and 9 as well as caspase-10, 2, and 5 [10]: significantly increased
- ubiquitinylation of cTnI (cTnI): increased

B1: NRG1: GGF2, a recombinant neuregulin-1; gift from Acorda Therapeutics (protein)
chain: GNEAAPAGASVCYSSPPSVGSVQELAQRAAVVIEGKVHPQRRQQGALDRKAAAAAGEAGAWGGDREPPAAGPRALGPPAEEPLLAANGTVPSWPTAPVPSAGEPGEEAPYLVKVHQVWAVKAGGLKKDSLLTVRLGTWGHPAFPSCGRLKEDSRYIFFMEPDANSTSRAPAAFRASFPPLETGRNLKKEVSRVLCKRCALPPRLKEMKSQESAAGSKLVLRCETSSEYSSLRFKWFKNGNELNRKNKPQNIKIQKKPGKSELRINKASLADSGEYMCKVISKLGNDSASANITIVESNATSTSTTGTSHLVKCAEKEKTFCVNGGECFMVKDLSNPSRYLCKCPNEFTGDRCQNYVMASFYSTSTPFLSLPE
- cytochrome c release to the cytosol (cytochrome c release): inhibited this effect
- mRNA level of cTnI and cTnT [3]: maintained
- mRNA level of GATA4 [3, 12]: maintained
- mRNA level of MEF2c and Nkx2.5 [3, 12]: slightly increased
- survival (C57BL/6 mice [4]): significantly improved survival
- survival rate [5, 11]: 67%
- survival rate ([5]; dnPI3K mice, NRG1 0.75 mg/kg s.c.): 56%
- cTnI protein level in dnPI3K hearts [7]: abolished doxorubicin-induced down-regulation
- protein levels of cTnI, cTnT and cTnC in doxorubicin-injured hearts ([9]; NRG1 0.75 mg/kg s.c. daily, doxorubicin 20 mg/kg i.p., five days after doxorubicin): significantly increased
- protein levels of α-sarcomeric actin, α-actinin and tropomyosin in doxorubicin-injured hearts ([9]; NRG1 injection in vivo): had no effects
- activation of caspase 3, 6 and 9 as well as caspase-10, 2, and 5 [10]: significantly inhibited
- ubiquitinylation of cTnI (cTnI): abolished this effect
